Results from patent US11608313B2, “Adamantylmethylamine derivative and use thereof as pharmaceutical” (TOHOKU UNIVERSITY, priority 2017, dated 2023).

Tested on: OBX mice
Experiment: Tail-suspension test and forced swim test in OBX mice (depression model)
Format: in vivo
Conditions: single oral dose 1 mg/kg, analyzed after 1 hour
Protocol: OBX mice were used as a depression model to determine the effect of TP-014 (chronic oral treatment for 2 weeks (1 mg/kg)) to ameliorate a depression-like symptom. OBX mice are reported to show a decline in cognitive function, but have originally been established as a depression model. Depression analysis was done by tail-suspension test and forced swim test. In the tail-suspension test, mice are hung upside-down by their tail. If the hung mice are affected by depression, they show a longer immobility time. The immobility time of normal mice is shorter since they move actively when hung. In the forced swim test, mice are forced to swim in a beaker filled with water. Depression mice neither swim nor move (just float). The time (immobility time(s)) for which mice stay still in such a way is measured.
The same model mice were orally treated with a single dose of each of the test compounds (1 mg/kg), and analyzed after 1 hour by tail-suspension test and forced swim test. The results are shown in FIGS. 22-1 (tail-suspension test) and 22-2 (forced swim test).

## CC(C)(C)C(=O)N[C@@H](c1ccccc1)[C@H]1[C@H]2C[C@@H]3C[C@](Cl)(C2)C[C@@]1(O)C3 [TP-083, N—((R)-((1S,2R,3S,5S,7S)-5-chloro-1-hydroxyadamantan-2-yl)(phenyl)methyl)pivalamide]
  ameliorating effect on a depression-like symptom (tail-suspension test and forced swim test) compared with TP-014: higher ameliorating effect on a depression-like symptom than TP-014
